Entries after “also recorded” stand apart in the source; their conditions may differ.

For one substance, P-selectin expression and VCAM-1 expression results are on record in patent US11344627B2, “Dendrimer-exosome hybrid nanoparticles as a delivery platform” (WISCONSIN ALUMNI RESEARCH FOUNDATION, priority 2017, dated 2022).

The subject of this experiment is HUVEC cells. Kind of experiment: Immunostaining of P-selectin and VCAM-1 on endothelial cells upon TNF-α treatment. It is filed as cell-based, human. Particulars: TNF-α 20 ng/mL, 4 hrs, confocal. How it is done: Immunostaining: To determine P-selectin and VCAM-1 expression on endothelial cells upon TNF-α-treatment, HUVEC cells were cultured on a cover glass and treated with 20 ng/mL of TNF-α at 37° C. for 4 hrs. The cells were fixed with 4% paraformaldehyde and blocked using a 5% BSA solution in PBS for 30 min. The cells were then incubated with primary antibodies against P-selectin or VCAM-1 for 1 hr at room temperature. The cells were incubated with fluorescence-labeled secondary antibodies for 1 hr at room temperature. The cells were washed, mounted with a mounting medium, and observed using a confocal microscope (Zeiss, Dublin, Calif.).
Potential advantages of using hMSC-derived exosomes would include the utilization of the homing properties of hMSCs to inflamed endothelia that are frequently found in cancerous regions. […] Human umbilical vein endothelial cells (HUVEC) were used to determine if the exosomes could potentially interact with the cells upon activation using TNF-α. TNF-α is known to induce expression of vascular cell adhesion molecule-1 (VCAM-1) and P-selectin that are directly involved in the hMSC binding to endothelial layers. The expression of VLA-4 and CD162 that are ligands binding to VCAM-1 and P-selectin, respectively, from the exosomes was confirmed using western blotting (FIG. 9).

As for TNF-α, the P-selectin expression result was “overexpress; also recorded: increased” and the VCAM-1 expression entry was “overexpress; also recorded: increased”.
